Active and inactive are the calls of the source.
Tests used:
[1] = biological target: DNA dC->dU-editing enzyme APOBEC-3G (Homo sapiens, UniProt Q9HC16); test: Dose Response confirmation of small molecule APOBEC3G DNA Deaminase Inhibitors via a fluorescence-based single-stranded DNA deaminase assay. [Related pubchem assays (depositor defined):AID493012, AID493028]; assay type: functional
[2] = C. albicans growth with fluconazole, confirmation, fluorescence, retest (AID 2467); assay type: functional, cell-based
[3] = biological target: T1, Mannose-6-phosphate isomerase (Homo sapiens, UniProt P34949); test: human PMI inhibitors, high substrate, primary screen, biochemical, fluorescence intensity, high mannose 6-phosphate (AID 1220)
T1 sequence (P34949 whole entry): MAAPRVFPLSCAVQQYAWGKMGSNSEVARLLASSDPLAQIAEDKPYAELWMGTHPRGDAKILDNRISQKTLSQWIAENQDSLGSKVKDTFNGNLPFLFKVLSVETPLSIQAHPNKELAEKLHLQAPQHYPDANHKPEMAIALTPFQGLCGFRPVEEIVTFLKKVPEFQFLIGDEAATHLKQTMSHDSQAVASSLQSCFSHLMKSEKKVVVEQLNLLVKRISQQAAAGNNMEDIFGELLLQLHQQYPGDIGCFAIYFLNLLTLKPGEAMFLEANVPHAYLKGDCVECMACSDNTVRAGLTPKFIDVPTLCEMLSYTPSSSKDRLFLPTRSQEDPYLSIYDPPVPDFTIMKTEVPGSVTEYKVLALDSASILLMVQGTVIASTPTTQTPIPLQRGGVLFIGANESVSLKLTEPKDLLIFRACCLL

[4] = NIH-3T3 fibroblast cytotoxicity, dose response, cytotoxicity control, cell-based, fluorescence, Alamar Blue, secondary assay (AID 2327); assay type: functional;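 note: NIH-3T3 mouse fibroblasts cultured with fluconazole at 8 µg/mL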
[5] = biological target: T2, Calpain-2 catalytic subunit (Sus scrofa, UniProt P43367); test: pig calpain II inhibitor potency, dose response, biochemical, fluorogenic peptide substrate (AID 1420); assay type: functional
T2 sequence (P43367 whole entry): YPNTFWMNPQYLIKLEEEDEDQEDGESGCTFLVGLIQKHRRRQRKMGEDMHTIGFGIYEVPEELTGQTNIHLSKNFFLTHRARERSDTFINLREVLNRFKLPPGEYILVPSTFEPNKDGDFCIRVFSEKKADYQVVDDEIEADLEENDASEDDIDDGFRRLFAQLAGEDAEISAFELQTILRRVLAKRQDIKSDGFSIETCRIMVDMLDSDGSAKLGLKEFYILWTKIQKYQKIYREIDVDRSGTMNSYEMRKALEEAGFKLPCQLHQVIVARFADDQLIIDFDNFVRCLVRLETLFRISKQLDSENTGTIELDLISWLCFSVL

[6] = biological target: T3, Protein RecA (Mycobacterium tuberculosis, UniProt P9WHJ3); test: Fluorescence Cell-Free Homogeneous Dose Retest to Identify Inhibitors of RecA-Intein Splicing Activity. [Related pubchem assays (depositor defined):AID2097, AID2223, AID489010, AID492950]; assay type: functional
T3 sequence (P9WHJ3 whole entry): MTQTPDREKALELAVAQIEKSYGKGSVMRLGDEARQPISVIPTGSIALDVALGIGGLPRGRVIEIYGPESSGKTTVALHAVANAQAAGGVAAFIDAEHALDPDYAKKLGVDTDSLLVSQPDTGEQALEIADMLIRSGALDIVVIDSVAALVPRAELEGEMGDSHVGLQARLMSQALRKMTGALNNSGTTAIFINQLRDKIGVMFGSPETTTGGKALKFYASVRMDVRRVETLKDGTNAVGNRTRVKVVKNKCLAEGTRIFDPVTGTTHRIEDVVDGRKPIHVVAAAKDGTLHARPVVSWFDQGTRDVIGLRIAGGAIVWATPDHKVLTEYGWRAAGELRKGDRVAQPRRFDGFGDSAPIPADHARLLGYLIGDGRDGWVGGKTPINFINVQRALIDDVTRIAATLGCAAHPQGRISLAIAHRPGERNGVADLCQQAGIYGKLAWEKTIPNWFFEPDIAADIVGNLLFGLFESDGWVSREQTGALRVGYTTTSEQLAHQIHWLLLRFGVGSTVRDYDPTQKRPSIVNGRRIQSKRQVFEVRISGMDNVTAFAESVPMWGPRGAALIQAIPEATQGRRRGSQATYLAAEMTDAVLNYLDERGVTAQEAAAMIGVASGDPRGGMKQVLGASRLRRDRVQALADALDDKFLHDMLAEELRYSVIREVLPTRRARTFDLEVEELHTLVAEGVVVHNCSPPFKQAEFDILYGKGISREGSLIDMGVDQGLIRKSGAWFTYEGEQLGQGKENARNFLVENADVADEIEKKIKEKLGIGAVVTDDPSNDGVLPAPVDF

[7] = THP-1 cell cytotoxicity, dose response, cytotoxicity control for Vif-APOBEC3G degradation inhibitor project, THP-1 cells (AID 1117359); assay type: functional; settings: Human immunodeficiency virus 1, THP-1
[8] = biological target: T4, Replicative DNA helicase DnaB (Mycobacterium tuberculosis, UniProt P9WMR3); test: DnaB intein splicing inhibitors, dose response, biochemical, cell-free fluorescence (AID 449749); assay type: functional
T4 sequence (P9WMR3 whole entry): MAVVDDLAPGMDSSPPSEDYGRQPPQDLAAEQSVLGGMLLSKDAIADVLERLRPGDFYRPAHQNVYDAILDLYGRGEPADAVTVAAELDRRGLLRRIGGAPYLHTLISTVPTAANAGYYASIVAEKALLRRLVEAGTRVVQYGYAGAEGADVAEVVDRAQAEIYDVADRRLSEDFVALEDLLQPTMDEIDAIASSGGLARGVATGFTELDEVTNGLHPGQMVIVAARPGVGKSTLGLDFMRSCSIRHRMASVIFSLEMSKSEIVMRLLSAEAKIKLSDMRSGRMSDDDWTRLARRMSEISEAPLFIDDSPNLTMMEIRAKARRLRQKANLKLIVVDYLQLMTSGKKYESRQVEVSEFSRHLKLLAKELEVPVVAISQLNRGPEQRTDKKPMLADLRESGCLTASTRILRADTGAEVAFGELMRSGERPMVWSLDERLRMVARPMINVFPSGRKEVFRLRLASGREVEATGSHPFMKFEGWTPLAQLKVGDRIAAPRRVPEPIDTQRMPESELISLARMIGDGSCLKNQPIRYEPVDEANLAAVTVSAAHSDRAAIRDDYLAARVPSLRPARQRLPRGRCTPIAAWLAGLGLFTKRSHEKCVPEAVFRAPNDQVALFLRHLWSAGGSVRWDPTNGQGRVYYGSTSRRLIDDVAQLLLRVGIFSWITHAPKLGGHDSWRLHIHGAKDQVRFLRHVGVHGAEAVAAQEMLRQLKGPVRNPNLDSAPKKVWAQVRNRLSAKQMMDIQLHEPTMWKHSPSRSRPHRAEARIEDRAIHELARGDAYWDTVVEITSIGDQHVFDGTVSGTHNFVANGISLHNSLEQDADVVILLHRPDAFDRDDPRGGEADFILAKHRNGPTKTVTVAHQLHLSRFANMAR

[9] = biological target: T5, Protein Tat (Human immunodeficiency virus type 1 group M subtype B (isolate HXB2)(HIV-1), UniProt P04608); assay type: functional;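 note: tat binding to TAR RNA read out by fluorescence polarization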
T5 sequence (P04608 whole entry): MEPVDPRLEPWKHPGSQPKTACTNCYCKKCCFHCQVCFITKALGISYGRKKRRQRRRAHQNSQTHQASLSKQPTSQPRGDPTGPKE

[10] = Vero cell cytotoxicity, dose response, cytotoxicity control for Vif-APOBEC3G degradation inhibitor project, Vero cells (AID 1117358); assay type: functional; settings: Human immunodeficiency virus 1, Vero
[11] = biological target: T1, Mannose-6-phosphate isomerase; test: inhibitors of human PMI, primary screen, biochemical, fluorescence intensity, coupled assay (AID 1209)
[12] = biological target: T6, Rac GTPase-activating protein 1 (Homo sapiens, UniProt Q9H0H5); test: MgcRacGAP GTPase-activating activity inhibitors, confirmation, biochemical, ADP Hunter fluorescence, primary and confirmatory (AID 624330); assay type: functional
T6 sequence (Q9H0H5 whole entry): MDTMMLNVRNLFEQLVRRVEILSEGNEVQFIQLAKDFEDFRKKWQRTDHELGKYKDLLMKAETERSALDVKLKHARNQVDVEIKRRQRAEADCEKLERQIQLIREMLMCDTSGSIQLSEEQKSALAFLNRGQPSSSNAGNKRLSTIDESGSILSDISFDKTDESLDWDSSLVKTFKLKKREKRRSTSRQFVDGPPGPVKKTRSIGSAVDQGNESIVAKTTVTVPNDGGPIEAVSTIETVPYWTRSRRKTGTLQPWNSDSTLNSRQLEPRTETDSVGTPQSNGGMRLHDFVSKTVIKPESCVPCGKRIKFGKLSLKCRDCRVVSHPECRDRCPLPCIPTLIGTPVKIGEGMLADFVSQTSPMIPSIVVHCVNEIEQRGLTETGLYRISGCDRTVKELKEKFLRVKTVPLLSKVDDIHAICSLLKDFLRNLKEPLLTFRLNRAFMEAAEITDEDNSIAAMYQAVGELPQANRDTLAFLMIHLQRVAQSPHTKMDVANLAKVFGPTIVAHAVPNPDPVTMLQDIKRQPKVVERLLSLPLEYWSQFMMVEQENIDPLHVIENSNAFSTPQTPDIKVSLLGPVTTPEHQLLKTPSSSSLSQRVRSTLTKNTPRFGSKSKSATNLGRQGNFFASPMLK

[13] = biological target: Heat shock protein HSP 90-alpha (Homo sapiens, UniProt P07900); assay type: functional, organism-based
[14] = CellTiter-Glo luminescent dose response of DLD-1 viability loss (AID 1117352); assay type: functional
[15] = biological target: T7, Cysteine protease ATG4B (Homo sapiens, UniProt Q9Y4P1); assay type: functional;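 note: Fluorescence-based dose-response confirmation assay measuring inhibition of ATG4B activity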
T7 sequence (Q9Y4P1 whole entry): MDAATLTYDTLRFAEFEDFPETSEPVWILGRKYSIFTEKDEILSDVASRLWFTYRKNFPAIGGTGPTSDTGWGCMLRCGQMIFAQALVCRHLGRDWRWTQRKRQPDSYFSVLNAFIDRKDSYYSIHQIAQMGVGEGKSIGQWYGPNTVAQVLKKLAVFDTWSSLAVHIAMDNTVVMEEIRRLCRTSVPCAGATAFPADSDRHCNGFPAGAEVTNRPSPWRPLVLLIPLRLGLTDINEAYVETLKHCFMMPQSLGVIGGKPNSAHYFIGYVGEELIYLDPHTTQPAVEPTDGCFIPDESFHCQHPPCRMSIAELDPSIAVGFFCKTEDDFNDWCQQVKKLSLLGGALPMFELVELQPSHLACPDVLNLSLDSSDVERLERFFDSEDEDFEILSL

[16] = HeLa 2N DNA content increase, dose response, cell-based, IC50 (AID 1117349); assay type: functional
[17] = HeLa cell cytotoxicity, dose response, cytotoxicity control for MgcRacGAP inhibitor project (AID 624300); assay type: functional
[18] = HCT116 cell viability decrease, GSK3B pretreatment – CellTiter-Glo, IC50, dose response (AID 1117339); assay type: functional; settings: HCT-116
[19] = biological target: T8, DNA repair protein RAD52 homolog (Homo sapiens, UniProt P43351); assay type: functional, biochemical
T8 sequence (P43351 whole entry): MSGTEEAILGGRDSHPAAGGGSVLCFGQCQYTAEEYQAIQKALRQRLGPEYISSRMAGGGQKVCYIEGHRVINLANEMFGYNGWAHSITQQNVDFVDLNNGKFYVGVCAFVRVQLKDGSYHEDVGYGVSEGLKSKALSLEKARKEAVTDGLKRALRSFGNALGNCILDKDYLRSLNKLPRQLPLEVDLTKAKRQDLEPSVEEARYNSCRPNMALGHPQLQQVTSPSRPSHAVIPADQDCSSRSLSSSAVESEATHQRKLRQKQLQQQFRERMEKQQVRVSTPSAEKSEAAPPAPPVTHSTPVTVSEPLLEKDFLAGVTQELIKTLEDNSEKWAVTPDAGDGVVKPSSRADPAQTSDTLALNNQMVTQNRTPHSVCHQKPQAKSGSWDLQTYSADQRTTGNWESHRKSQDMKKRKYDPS

[20] = cytotoxicity toward HCT116 cells – cell-based, CellTiter-Glo luminescence, IC50, dose response (AID 1117332); assay type: functional; settings: HCT-116
[21] = Concentration-dependent survival of SW480 colon cancer line, luminescence detection with CellTiter-Glo, half-maximal inhibitory concentration (AID 1117338); assay type: functional
[22] = cytotoxicity toward Colo320 cells – cell-based, CellTiter-Glo luminescence, IC50, dose response (AID 1117334); assay type: functional; settings: COLO 320
[23] = RKO cell viability reduction, dose response, CellTiter-Glo luminescence (AID 1117322); assay type: functional
[24] = cells; assay type: functional, cell-based; settings: INS-1E
[25] = half-maximal inhibitory concentration for glucagon-like peptide-1 release, STC-1 cell line, dose-response (AID 1117345); assay type: functional, cell-based
[26] = Glucagon-like peptide 1 release potency, NCI-H716 cell line, dose-response, half-maximal inhibitory concentration (AID 1117344); assay type: functional, cell-based
[27] = cytotoxicity toward HT-29 cells – cell-based, CellTiter-Glo luminescence, IC50, dose response (AID 1117330); assay type: functional
[28] = SNU-C1 cell viability reduction, dose response, CellTiter-Glo luminescence (AID 1117323); assay type: functional, cell-based
[29] = HeLa 4N DNA content increase, dose response, cell-based, IC50 (AID 1117351); assay type: functional
[30] = biological target: Phospholipase A2 (Homo sapiens, UniProt P04054); assay type: functional;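 note: confirmatory dose-response counterscreen on phospholipase A2, testing hits that came from an ultra-high-throughput screen for ATG4B inhibitors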
Sequence of Phospholipase A2 (P04054 whole entry): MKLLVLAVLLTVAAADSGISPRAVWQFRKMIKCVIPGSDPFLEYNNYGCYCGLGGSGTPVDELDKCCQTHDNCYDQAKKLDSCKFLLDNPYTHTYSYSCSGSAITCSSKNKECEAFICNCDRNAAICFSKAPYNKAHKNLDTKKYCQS

Sequence of DNA dC->dU-editing enzyme APOBEC-3G (Q9HC16 whole entry): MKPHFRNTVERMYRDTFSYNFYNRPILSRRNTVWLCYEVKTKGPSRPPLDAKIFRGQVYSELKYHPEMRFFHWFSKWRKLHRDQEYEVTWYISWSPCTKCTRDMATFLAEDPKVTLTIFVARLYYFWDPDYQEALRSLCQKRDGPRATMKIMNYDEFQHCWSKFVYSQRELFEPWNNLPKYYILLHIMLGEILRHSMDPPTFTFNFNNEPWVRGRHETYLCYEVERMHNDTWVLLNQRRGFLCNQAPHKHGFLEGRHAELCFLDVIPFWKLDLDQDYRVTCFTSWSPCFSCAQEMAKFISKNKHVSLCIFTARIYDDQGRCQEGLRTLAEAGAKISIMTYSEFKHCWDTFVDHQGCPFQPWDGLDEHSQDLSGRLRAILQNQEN

## O=[N+]([O-])c1ccc2c(c1)nc(S)n2-c1ccccc1
[1]
  IC50: 9.42 µM (active)
[2]
  EC50: 2.85 µM (active)
[3]
  IC50: 39.6 µM (active)
[4]
  EC50: > 150 µM (inactive)

## CCOc1cc(CNc2ccc(O)cc2)ccc1OCc1ccc(Cl)cc1Cl
[5]
  IC50: 7.31 µM (not active)
[6]
  EC50: 331 µM (active)
[7]
  CC50: 13.9 µM (active)
[8]
  AC50: > 380 µM (inconclusive)
[9]
  IC50: 34 µM (inconclusive)
[10]
  CC50: > 40 µM (active)
[11]
  IC50: > 50 µM (not active)

## CCCCCCCCCCCCCCCC[n+]1ccccc1
[12]
  IC50: 61.1 µM (active)
[13]
  AC50: 4.22 µM (active)
[14]
  IC50: 1.93 µM (active)
[15]
  IC50: 7.14 µM (active)
[16]
  IC50: 1.25 µM (active)
[17]
  CC50: 11.8 µM (active)
[18]
  IC50: 2.29 µM (active)
[19]
  AC50: 3.79 µM (active)
[20]
  IC50: 1.19 µM (active)
[21]
  IC50: 1.61 µM (active)
[22]
  IC50: 1.64 µM (active)
[23]
  IC50: 1.27 µM (active)
[24]
  IC50: > 33.3 µM (inactive)
[25]
  IC50: > 20 µM (inactive)
[26]
  IC50: 14.8 µM (inactive)
[27]
  IC50: 2.29 µM (active)
[28]
  IC50: 0.934 µM (active)
[29]
  IC50: > 10 µM (inactive)
[30]
  IC50: 8.34 µM (active)

From ChEMBL document CHEMBL1201862, “PubChem BioAssay data set” (2004)
